In patent publication US7053050B2, “Preventives/remedies for proliferative organ diseases chronic arthritic diseases, hypertrophic scar or keloid” (Yoshiko Yasuda, priority 2001, dated 2006):

System: malignant melanoma cell strains (P39) tumor
Test: Heterotransplantation of malignant melanoma cells in nude mice; PCNA and CD31 staining of the excised tumor
Format: in vivo, nude mice (Balb/c Jcl-nu)
Procedure: EMP9 was synthesized by a known method and dissolved in saline. The solution was colored with addition of Evans blue at the final concentration of 0.25%.
Five-week old nude mice (Balb/c Jcl-nu, Japan Clea Inc.) were purchased, maintained in a germfree chamber for a week for acclimatization and then used. 5×10^6 cells of malignant melanoma cell strains (P39, Utsumi and Elkind, 1993) were suspended in a culture solution (0.1 ml) and the suspension was injected subcutaneously interscapularly into the mice. After a few weeks, formation of tumor was observed on the outer skin surface. The major axis×minor axis×height of the tumor was measured twice a week. The tumor was observed until its size became 6×7×7 mm, thereafter administration was started. After the administration, the size of the tumor was measured in a similar manner.
Four doses of 0.1 ml of a 0.5 mg/ml EMP9 solution were administered intraperitoneally at intervals of 1 hr. After 24 hr and 48 hr, 0.1 ml of the solution was administered similarly 4 times, respectively. On the 7th day from the first administration, the tumor was excised.
The excised tumor was fixed in Zamboni fixing liquid or frozen in liquid nitrogen. The tumor fixed in Zamboni fixing liquid was divided into several tissue masses. The plural samples collected from the respective masses were embedded to prepare tissue sections thereof. The proliferating cells were stained using PCNA antibody and the vascular endothelial cells were stained using CD31 antibody, respectively. Hematoxylin was used for nuclear staining. Each of the section specimens was observed under a microscope at 200-fold magnification. The cell number in 20 compartments wherein one compartment has an area of 17.6×10^−3 mm^2 was counted (the cell number was not less than 4,500). The cell proliferation ratio was calculated from the following equation and represented in [Table 1]. Furthermore, the number of blood vessel in 100 compartments was counted, and the average number per a compartment (13.1×10^−2 mm^2) was calculated and represented in [Table 1]. […]

“erythropoietin mimetic peptide 9 (GGTYSCHFAPLTWVCKPQGG) [EMP9, erythropoietin receptor antagonist]” was tested, and the “Proliferation ratio (%)” value (P39 melanoma tumor in nude mice, 0.1 ml of 0.5 mg/ml EMP9 intraperitoneally 4 times at 1 hr intervals, repeated after 24 hr and 48 hr, tumor excised on 7th day, PCNA staining, proliferating cells/living cells x100) was 3.03%, the “Inhibitory effects on tumor proliferation and neovascular proliferation (conclusion in words)” value (conclusion from Table 1, significant difference versus saline group (p<0.05)) was “superior inhibitory effects on both tumor proliferation and neovascular proliferation” and the “Number of blood vessel (average ± standard error)” value (same regimen, CD31 staining, average number per compartment (13.1×10^−2 mm^2), 100 compartments counted) was 0.64 ± 0.10.
